The values that follow come from patent US5352667A, “Non-peptidic surrogates of the Arg-Gly-Asp sequence and pharmaceutical compositions comprising them” (priority 1991, dated 1994).

The subject of assay [1] is CD4^+ T cell adhesion to 120 kD fragment of FN. Kind of assay: Inhibition of activated CD4+ T cell adhesion to 120 kD fragment of FN. The assay is classed as cell-based, human. The settings on record: for % inhibition of adhesion of activated CD4^+ T cell to 120 kD fragment of FN / % Adhesion of activated CD4^+ T cell to 120 kD fragment of FN: 0.2 mM peptides and surrogates, mAb anti-CD29 1/200, anti-VLA5 1/400 diluted; for % inhibition of adhesion of activated CD4^+ T cell to 120 kD fragment of FN: * P<0.05; for % Adhesion of activated CD4^+ T cell to 120 kD fragment of FN: PMA activated, none 43 ± 4; for T cell adhesion to FN, in words: 0.2 mM, 120 kD fragment of FN. The method, then:
(§1) To examine the adhesive properties of the T cells, 1 μg/50 μl/well of either fibronectin (FN) (Sigma), the 120 kD cell attachment fragment of FN (Telios Pharm. Inc. San Diego, CA), or laminin (LN) (Sigma), were added to 96-flat bottom microtiter-wells for 12 h. Unbound proteins were then washed away and remaining binding sites were blocked with 0.1% bovine serum albumin (BSA) added to the wells for 2 h and washed. CD4+T cells were purified from peripheral blood mononuclear leukocytes obtained from healthy human donors. The mononuclear cells were isolated using a Ficoll gradient, washed and incubated in RPMI supplemented with 10% fetal calf serum (FCS) and antibiotics in petri dishes at 37° C. humidified CO2 incubator. After 2 h, the non-adherent cells were isolated and applied on nylon-wool columns (1.5 h). CD4^+ T cells were then negatively selected by exposure of the cells to a cocktail of anti-CD8, CD19, and CD14 monoclonal antibodies (mAb) conjugated to magnetic-beads (Advanced Magnetics, MA). Unbound cells were recovered and their phenotype was examined. Purity of the CD4^+ T cells was always greater than 92% as determined by FACScan.
(§2) The purified CD4^+ T cells were radioactively labeled with ^51 [Cr](New England Nuclear) in RPMI +20% FCS for 2 h and washed. The cells were counted and seeded (0.2×10^5 cells) on the precoated microtiter wells in the presence or the absence of the various inhibitors. Coating was made either with FN, the 120 kD cell-attachment fragment of FN or with control adhesive protein laminin (LN). The inhibitors were various surrogates according to the invention, other test molecules or mAb. After 30 min incubation (in […] CO2 -- humidified incubator) the T cells were activated by 10 ng/ml phorbol myristate acetate (PMA) and the percent of T cells attached to the protein substrates was measured. Unbound cells were washed away after 20-30 min, the bound cells were lysed and their radioactivity was measured using radioactive counter. The amount of the radioactivity of the cell lysates represent the matrix-adherent cells and percent binding was calculated in comparison to the total radioactivity added to the wells. Activated T cell adhesion to control wells or to wells coated with BSA was always 2-5%; the level of adhesion of the non-activated T cells was always below 5%. Where indicated, 1/200 diluted mAb anti-CD29 (anti-β1 mAb Serotec, GB), or 1/400 diluted anti-VLA5 (the β1α5 FN-integrin receptor) mAb (Telios Pharm. Inc. San Diego), or 0.2 mM of RGD, GRGDSPK or GRGESP peptides (Sigma) were used. The tested non-peptidic surrogates, 0.2 mM in PBS, were used to pretreat the T cells for 15 min before seeding the cells *, P<0.05. The results shown in Tables 1A, 1B and 1C represent data obtained from several experiments that produced essentially similar results.
(§3) The four RGD surrogates, AC-4.

Assay [2] deals with CD4^+ T cell adhesion to LN. Kind of assay: Inhibition of activated CD4+ T cell adhesion to laminin (LN). Format: cell-based, human. The settings on record: for % inhibition of adhesion of activated CD4^+ T cell to LN / % Adhesion of activated CD4^+ T cell to LN: 0.2 mM peptides and surrogates, mAb anti-CD29 1/200, anti-VLA5 1/400 diluted; for % inhibition of adhesion of activated CD4^+ T cell to LN: * P<0.05; for % Adhesion of activated CD4^+ T cell to LN: none 55 ± 5. The method, then: as §1, §2, §3

Assay [3] relates to B16-melanoma cells adhesion to VN. Kind of assay: Inhibition of B16-melanoma cell adhesion to VN. Format: cell-based, murine. The settings on record: for % inhibition of adhesion of B16-melanoma cells to VN / % Adhesion of B16-melanoma cells to VN: surrogates 0.2 mM; for % inhibition of adhesion of B16-melanoma cells to VN: * P<0.05; for % Adhesion of B16-melanoma cells to VN: none 68 ± 5. The method, then: To examine the adhesive properties of tumor cells, 1 μg/50μ/well of FN or 0.3μg/well of VN were added to 96-flat bottom microtiter wells for 12 h. Unbound proteins were then washed away and remaining binding sites were blocked with 0.1% BSA added to the wells for 2 h and washed. Murine B16-melanoma F-1 cells were metabolically labeled with ^35 S-methionine (New England Nuclear) for 2 h, chased for 18 h and extensively washed. The cell suspension was resuspened in RPMI supplemented with 1% BSA containing 1 mM CaCl2 and MgCl2. Tumor cell adhesion to control wells or to wells coated with BSA was always 2-5%. The tested non-peptidic surrogates, 0.2 mM in PBS, were used to pretreat the tumor cells for 15 min before seeding the cells *, P<0.05.
In a first series of experiments, the potential inhibitory action of the RGD surrogate SF-6,5 on adhesion of B16 melanoma cells to FN or VN was compared to that of the RGE surrogate SF-6,6 and to that of RGD, GRGDSPK and GRGESP peptides.

In assay [4] the test system is tumor cell-induced metastases. Kind of assay: Inhibition of tumor cell-induced metastases in C57BL/6 mice. The assay is classed as in vivo. The settings on record: i.v. daily, 25μg of SF-6,5 per mouse, after induction of metastasis.
The target of assay [5] is T1, platelet GPIIb-IIIa receptor (Homo sapiens, UniProt P05106+P08514).
T1 construct: Platelet concentrates were prepared from human whole blood; endogenous in cells; host or cells: human platelets in platelet rich plasma
Kind of assay: Inhibition of ADP-induced platelet aggregation (platelet rich plasma). The settings on record: for Inhibition of platelet aggregation, dose dependence, in words: FIG. 3; for Inhibition of platelet aggregation at fixed concentration, in words: FIG. 4, fixed sub-saturating 0.5 mM / 10μg/ml, 4 experiments. The assay is classed as cell-based. The protocol:
To investigate the inhibitory role of the RGD analogues on adhesion, the platelet GPIIb-IIIa receptor which mediates platelet aggregation upon activation was used as a model.
Platelet concentrates were prepared from human whole blood in 10% adenine-citrate-dextrose in Fenwall bags (Baxter Travenol, Israel) followed by standard AABB protocol. Platelet rich plasma was prepared by centrifugation (2500 rpm for 5 min). Samples of platelets were counted in a Minos AST Cell Counter (Levoiselle, France). Cell aggregation was induced by […] and monitored at […] in a 4-channel Aggregometer (Bio-Data, Hatboro, Pa.). To evaluate the effect of the various RGD peptides and the peptide analogues, the platelet rich plasma was pre-incubated with the various inhibitors for 10 min at 37° C. with 10μsolutions followed by the induction of aggregation.
To examine the specificity of the inhibitory effect of the RGD-analogues on platelet aggregation, the cells were treated with various peptidic (RGD and GRGDSP) and non-peptidic (SF-6,6, SF-6,5 and AC-15) RGD analogues used at a fixed sub-saturating concentration of 0.5 mM.
An in vitro assay as described in Example 17 was carried out with the compound NS-11 to examine its ability to interfere with platelet aggregation, and compared it to the SF-6,5 surrogate.
Platelet rich plasma (PRP) was prepared from acid/citrate/dextrose anti-coagulated fresh human blood by differential centrifugation. Platelet aggregation was induced by […] and monitored at 695 nm by a 4-channel Aggregometer (Bio-Data, PA). To evaluate the effect of the RGDS peptide and the NS-8, NS-11 and NS-15 analogs, the PRP was preincubated with the inhibitors for 10 minutes at 37° C., prior to the induction of aggregation. […] In fact, 50% inhibition of platelet aggregation was achieved using a 30-fold lower concentration of NS-11 than that of RGDS.

Turning to `N=C(N)NCCCCCC(=O)NCCCCC(=O)O` [SF-6,5, 6-aza-7-oxo-12-quanidino-dodecanoic acid], in assay [1], the “% inhibition of adhesion of activated CD4^+ T cell to 120 kD fragment of FN” value (“% inhibition of adhesion … of FN” below) was found to be 49%; the “% Adhesion of activated CD4^+ T cell to 120 kD fragment of FN” value (from here on “% Adhesion … of FN”) was found to be 22 ± 2%; the “T cell adhesion to FN, in words” value is on record as “most prominent inhibition”. In assay [2], the “% inhibition of adhesion of activated CD4^+ T cell to LN” value (“% inhibition of adhesion … to LN” for short) was 0% and the “% Adhesion of activated CD4^+ T cell to LN” value (“% Adhesion … to LN” for short) was determined as 55 ± 6%. In addition, the “B-16 melanoma cell adhesion to VN, in words” value in assay [3] (Table 2A) was “inhibited tumor cell adhesion to both FN and VN”. In assay [3], the “% inhibition of adhesion of B16-melanoma cells to VN” value (shortened to “% inhibition of adhesion … to VN”) came to 42% and the “% Adhesion of B16-melanoma cells to VN” value was 40 ± 5%. Besides, the “Inhibition of tumor cell-induced metastases” value in assay [4] was “inhibition of tumor cell-induced metastases”. Also, the inhibition at 100 µM in assay [5] (0.1 mM, ADP-induced, read-out: Percent inhibition of aggregation) came to 25%. Moreover, the inhibition at 300 µM in assay [5] (0.3 mM, ADP-induced, read-out: Percent inhibition of aggregation) was 55%. Also, in assay [5], the “Inhibition of platelet aggregation, dose dependence, in words” value was “found to inhibit the aggregation of platelet rich plasma in a dose-dependent fashion” and the “Inhibition of platelet aggregation at fixed concentration, in words” value (from here on “Inhibition … at fixed concentration, in words”) is listed as “even higher than that of the GRGDSPK peptide”. The IC50 in assay [5] (FIG. 3, ADP-induced) worked out at 300 µM. In assay [5] (Table 3), the “Inhibition of platelet aggregation, in words” value was “mild, though significant effect on aggregation”.
As to GRGDSPK [RGD peptide (Sigma)], in assay [1], the “% inhibition of adhesion … of FN” value was 54%; the “% Adhesion … of FN” value is 20 ± 2%; the “T cell adhesion to FN, in words” value is reported as “specifically inhibited”. Moreover, in assay [2], the “% inhibition of adhesion … to LN” value came to 0% and the “% Adhesion … to LN” value turned out to be 53 ± 4%. Also, in assay [3], the “% inhibition of adhesion … to VN” value was determined as 86% and the “% Adhesion of B16-melanoma cells to VN” value is reported as 10 ± 2%. In addition, in assay [5], the “Inhibition … at fixed concentration, in words” value was “marked inhibitory effect on platelet aggregation”.
As for `N=C(N)NCCCCCC(=O)NCCCCCC(=O)O` [SF-6,6], in assay [1], the “% inhibition of adhesion … of FN” value was 0%; the “% Adhesion … of FN” value is 46 ± 2%; the “T cell adhesion to FN, in words” value is “did not inhibit T cell adhesion to both FN and LN”. Also, in assay [2] (0.2 mM), the “T cell adhesion to LN, in words” value is “did not inhibit T cell adhesion to both FN and LN”. In assay [2], the “% inhibition of adhesion … to LN” value turned out to be 0% and the “% Adhesion … to LN” value was found to be 52 ± 6%. In assay [3], the “% inhibition of adhesion … to VN” value worked out at 0% and the “% Adhesion of B16-melanoma cells to VN” value was determined as 70 ± 7%. Also, in assay [4], the “Inhibition of tumor cell-induced metastases” value is listed as “failed to inhibit metastases”. Further, in assay [5], the “Inhibition of platelet aggregation, dose dependence, in words” value is listed as “but not SF-6,6, was found to inhibit the aggregation of platelet rich plasma” and the “Inhibition … at fixed concentration, in words” value is recorded as “very limited inhibitory effect on platelet aggregation”.

One may read the inhibition as how much of the control response was suppressed. For orientation: IC50 means the concentration needed to halve the response being measured. Higher therefore signals weaker potency in that assay.
